Experiments:
[1] = tested on: MDR1 (P-gp); assay: Apparent permeability across basolateral to apical side in MDCK cells expressing human MDR1; format: ADME, cell-based, Canis lupus familiaris; conditions: dog
[2] = Fraction unbound in dog plasma; format: ADME, cell-free, Canis lupus familiaris
[3] = Oral bioavailability in dog; format: ADME, organism-based, Canis lupus familiaris; conditions: in vivo
[4] = Oral bioavailability in rat; format: ADME, organism-based; conditions: in vivo
[5] = target: T1, Estrogen receptor (Homo sapiens, UniProt P03372); assay: Binding affinity to ERalpha (unknown origin)
T1 sequence (P03372 whole entry): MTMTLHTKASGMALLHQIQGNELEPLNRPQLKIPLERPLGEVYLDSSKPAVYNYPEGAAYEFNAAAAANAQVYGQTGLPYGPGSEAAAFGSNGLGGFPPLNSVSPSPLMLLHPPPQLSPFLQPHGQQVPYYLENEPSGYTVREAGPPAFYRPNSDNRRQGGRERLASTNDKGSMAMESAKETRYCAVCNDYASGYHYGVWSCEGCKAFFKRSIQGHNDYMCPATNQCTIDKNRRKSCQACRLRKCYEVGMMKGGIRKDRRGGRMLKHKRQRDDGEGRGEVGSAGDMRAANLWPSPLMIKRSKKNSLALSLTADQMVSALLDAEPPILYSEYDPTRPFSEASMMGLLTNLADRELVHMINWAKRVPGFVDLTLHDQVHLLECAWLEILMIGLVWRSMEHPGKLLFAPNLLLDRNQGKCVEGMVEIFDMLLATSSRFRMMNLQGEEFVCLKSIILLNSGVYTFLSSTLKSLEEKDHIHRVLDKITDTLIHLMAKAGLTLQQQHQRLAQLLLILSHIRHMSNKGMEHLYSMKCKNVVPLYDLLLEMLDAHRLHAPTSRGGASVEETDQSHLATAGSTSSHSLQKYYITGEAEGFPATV

[6] = AUC in Wistar rat at 30 mg/kg, po administered as single dose measured up to 8 hrs post dose by LC-MS analysis; format: ADME, organism-based; set-up: time < 8 hr, dose 30 mg/kg, route oral; conditions: in vivo
[7] = AUC in Wistar rat at 100 mg/kg, po administered as single dose measured up to 8 hrs post dose by LC-MS analysis; format: ADME, organism-based; set-up: dose 100 mg/kg, time < 8 hr, route oral; conditions: in vivo
[8] = target: T2, Glucocorticoid receptor (Homo sapiens, UniProt P04150); assay: Binding affinity to GR (unknown origin) expressed in human IM9 cells; format: cell-based
T2 sequence (P04150 whole entry): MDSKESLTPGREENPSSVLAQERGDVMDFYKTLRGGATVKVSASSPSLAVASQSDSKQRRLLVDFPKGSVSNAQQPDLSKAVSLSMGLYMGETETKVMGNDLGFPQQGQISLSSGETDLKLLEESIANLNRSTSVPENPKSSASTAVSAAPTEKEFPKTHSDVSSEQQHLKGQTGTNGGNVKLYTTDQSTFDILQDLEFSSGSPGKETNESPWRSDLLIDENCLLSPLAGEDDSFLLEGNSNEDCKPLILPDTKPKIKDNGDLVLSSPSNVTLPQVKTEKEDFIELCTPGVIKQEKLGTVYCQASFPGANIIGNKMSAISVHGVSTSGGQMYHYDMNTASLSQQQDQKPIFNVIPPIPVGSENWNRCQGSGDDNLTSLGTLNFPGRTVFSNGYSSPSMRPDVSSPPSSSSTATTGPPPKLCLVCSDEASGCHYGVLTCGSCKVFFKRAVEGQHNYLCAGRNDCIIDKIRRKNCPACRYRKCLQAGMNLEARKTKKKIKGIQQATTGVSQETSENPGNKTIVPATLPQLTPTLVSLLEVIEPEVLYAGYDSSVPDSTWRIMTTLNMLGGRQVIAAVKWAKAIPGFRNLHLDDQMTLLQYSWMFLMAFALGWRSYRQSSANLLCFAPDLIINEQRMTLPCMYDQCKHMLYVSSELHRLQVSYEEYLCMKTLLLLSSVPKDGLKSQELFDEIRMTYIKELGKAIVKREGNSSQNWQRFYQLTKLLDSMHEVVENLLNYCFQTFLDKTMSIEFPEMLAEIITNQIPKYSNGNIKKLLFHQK

C[C@@H]1CN(c2ccc3c(n2)NC(=O)CO3)[C@H](c2ccccc2)CO1
Papp B→A [1]: 24.7 ×10⁻⁶ cm/s | fraction unbound [2]: 0.136 | bioavailability [3]: 65% | bioavailability [4]: 4 to 16% | IC50 [5]: > 10000 nM | AUC at 8 h [6]: 2850 ng·h/mL | AUC at 8 h [7]: 9410 ng·h/mL | IC50 [8]: 597 nM
